biological target: T1, STAT6 (Homo sapiens, UniProt P42226); experiment: STAT6 Reporter Luciferase Assay (IL-13 stimulated HaCaT keratinocyte NanoLuc reporter cells); type: cell-based; details: IL-13 stimulated HaCaT STAT6 NanoLuc reporter cells; read-out: Reporter EC50
T1 construct: stably transfected HaCaT keratinocyte cell line, which expresses NanoLuc luciferase reporter gene under the transcriptional control of the STAT6 responsive promoter; endogenous in cells; host or cells: HaCaT keratinocyte reporter cell line (stably transfected with a NanoLuc reporter)
T1 sequence (P42226 1-847): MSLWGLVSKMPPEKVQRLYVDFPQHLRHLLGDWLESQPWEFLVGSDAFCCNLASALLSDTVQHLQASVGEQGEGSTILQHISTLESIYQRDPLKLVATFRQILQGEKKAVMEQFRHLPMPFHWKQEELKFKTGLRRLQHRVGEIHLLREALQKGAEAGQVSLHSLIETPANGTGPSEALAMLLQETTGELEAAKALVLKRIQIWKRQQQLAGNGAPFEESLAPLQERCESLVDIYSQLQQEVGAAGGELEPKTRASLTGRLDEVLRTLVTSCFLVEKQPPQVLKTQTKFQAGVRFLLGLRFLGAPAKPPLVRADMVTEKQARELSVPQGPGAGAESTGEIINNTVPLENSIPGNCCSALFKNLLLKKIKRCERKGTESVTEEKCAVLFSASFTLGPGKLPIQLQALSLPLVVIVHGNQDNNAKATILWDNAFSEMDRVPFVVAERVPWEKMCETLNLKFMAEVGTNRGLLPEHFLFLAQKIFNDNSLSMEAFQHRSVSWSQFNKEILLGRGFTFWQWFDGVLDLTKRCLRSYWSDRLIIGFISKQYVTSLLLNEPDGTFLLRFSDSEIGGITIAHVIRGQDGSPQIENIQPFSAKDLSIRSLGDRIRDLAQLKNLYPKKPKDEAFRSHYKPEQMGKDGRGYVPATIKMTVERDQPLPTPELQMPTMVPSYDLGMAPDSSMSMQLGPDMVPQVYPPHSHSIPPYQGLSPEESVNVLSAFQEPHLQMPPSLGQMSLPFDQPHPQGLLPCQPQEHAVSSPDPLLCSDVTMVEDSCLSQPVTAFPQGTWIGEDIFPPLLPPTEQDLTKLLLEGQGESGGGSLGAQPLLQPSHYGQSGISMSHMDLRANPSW
Method in brief: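 IL-13 (0.12 nM, 4 h) stimulated STAT6 reporter activity in HaCaT cells after a 2 h compound pre-incubation; NanoLuc signal was measured.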

Structure (SMILES)	EC50
CC(=O)NC1CN(C(=O)c2ccc(N3CCc4c(c(C(=O)NCc5ccc(NC(=O)N(C)C)cc5)nn4C(C)C)C3)nc2)C1 [Example 292, 5-(5-(3-acetamidoazetidine-1-carbonyl)pyridin-2-yl)-N-(4-(3,3-dimethylureido)benzyl)-1-isopropyl-4,5,6,7-tetrahydro-1H-pyrazolo[4,3-c]pyridine-3-carboxamide]	0.99 µM
CC(C)n1nc(C(=O)NCc2ccc(NC(=O)N(C)C)cc2)c2c1CCN(c1ccc(C(=O)N3CC(=O)NC(C)(C)C3)cn1)C2 [Example 294, 5-(5-(3,3-dimethyl-5-oxopiperazine-1-carbonyl)pyridin-2-yl)-N-(4-(3,3-dimethylureido)benzyl)-1-isopropyl-4,5,6,7-tetrahydro-1H-pyrazolo[4,3-c]pyridine-3-carboxamide]	0.961 µM
CC(C)n1nc(C(=O)NCc2ccc(NC(=O)N(C)C)cc2)c2c1CCN(c1ccc(C(=O)N3CC4(CCC(=O)N4)C3)cn1)C2 [Example 298, N-(4-(3,3-dimethylureido)benzyl)-1-isopropyl-5-(5-(6-oxo-2,5-diazaspiro[3.4]octane-2-carbonyl)pyridin-2-yl)-4,5,6,7-tetrahydro-1H-pyrazolo[4,3-c]pyridine-3-carboxamide]	2.54 µM
CC(C)n1nc(C(=O)NCc2ccc(NC(=O)N(C)C)cc2)c2c1CCN(c1ccc(C(=O)N3CC4(CC(=O)N(C)C4)C3)cn1)C2 [Example 300, N-(4-(3,3-dimethylureido)benzyl)-1-isopropyl-5-(5-(6-methyl-7-oxo-2,6-diazaspiro[3.4]octane-2-carbonyl)pyridin-2-yl)-4,5,6,7-tetrahydro-1H-pyrazolo[4,3-c]pyridine-3-carboxamide]	1.42 µM
CC(C)n1nc(C(=O)NCc2ccc(NC(=O)N(C)C)cc2)c2c1CCN(c1ccc(C(=O)N3CC4(CCO4)C3)cn1)C2 [Example 326, 5-(5-(1-oxa-6-azaspiro[3.3]heptane-6-carbonyl)pyridin-2-yl)-N-(4-(3,3-dimethylureido)benzyl)-1-isopropyl-4,5,6,7-tetrahydro-1H-pyrazolo[4,3-c]pyridine-3-carboxamide]	1.28 µM
CC(C)n1nc(C(=O)NCc2ccc(NC(=O)N(C)C)cc2)c2c1CCN(c1ccc(C(=O)N3CC4(CNC(=O)C4)C3)cn1)C2 [Example 327, N-(4-(3,3-dimethylureido)benzyl)-1-isopropyl-5-(5-(7-oxo-2,6-diazaspiro[3.4]octane-2-carbonyl)pyridin-2-yl)-4,5,6,7-tetrahydro-1H-pyrazolo[4,3-c]pyridine-3-carboxamide]	3.2 µM
CC(C)n1nc(C(=O)NCc2ccc(NC(=O)N(C)C)cc2)c2c1CCN(c1ccc(C(=O)N3CCC4(CCC(=O)N4)CC3)cn1)C2 [Example 329, N-(4-(3,3-dimethylureido)benzyl)-1-isopropyl-5-(5-(2-oxo-1,8-diazaspiro[4.5]decane-8-carbonyl)pyridin-2-yl)-4,5,6,7-tetrahydro-1H-pyrazolo[4,3-c]pyridine-3-carboxamide]	1.05 µM
CC(=O)NC1(C)CN(C(=O)c2ccc(N3CCc4c(c(C(=O)NCc5ccc(NC(=O)N(C)C)cc5)nn4C(C)C)C3)nc2)C1 [Example 330, 5-(5-(3-acetamido-3-methylazetidine-1-carbonyl)pyridin-2-yl)-N-(4-(3,3-dimethylureido)benzyl)-1-isopropyl-4,5,6,7-tetrahydro-1H-pyrazolo[4,3-c]pyridine-3-carboxamide]	1.98 µM

Compounds with a lower EC50, results first:

EC50	Structure (SMILES)
0.793 µM	CC(C)n1nc(C(=O)NCc2ccc(NC(=O)N(C)C)cc2)c2c1CCN(c1ccc(C(=O)N3CC[C@H](C#N)C3)cn1)C2 [Example 291, (S)-5-(5-(3-cyanopyrrolidine-1-carbonyl)pyridin-2-yl)-N-(4-(3,3-dimethylureido)benzyl)-1-isopropyl-4,5,6,7-tetrahydro-1H-pyrazolo[4,3-c]pyridine-3-carboxamide]
0.1 µM	CC(C)n1nc(C(=O)NCc2ccc(NC(=O)N(C)C)cc2)c2c1CCN(c1ccc(C(=O)N3CC(=O)N(C)[C@H](C)C3)cn1)C2 [Example 293, (R)-5-(5-(3,4-dimethyl-5-oxopiperazine-1-carbonyl)pyridin-2-yl)-N-(4-(3,3-dimethylureido)benzyl)-1-isopropyl-4,5,6,7-tetrahydro-1H-pyrazolo[4,3-c]pyridine-3-carboxamide]
0.31 µM	CC(C)n1nc(C(=O)NCc2ccc(NC(=O)N(C)C)cc2)c2c1CCN(c1ccc(C(=O)N3CCC(O)CC3)cn1)C2 [Example 295, N-(4-(3,3-dimethylureido)benzyl)-5-(5-(4-hydroxypiperidine-1-carbonyl)pyridin-2-yl)-1-isopropyl-4,5,6,7-tetrahydro-1H-pyrazolo[4,3-c]pyridine-3-carboxamide]
0.523 µM	CC(=O)N1C[C@@H]2CN(C(=O)c3ccc(N4CCc5c(c(C(=O)NCc6ccc(NC(=O)N(C)C)cc6)nn5C(C)C)C4)nc3)C[C@@H]2C1 [Example 296, 5-(5-((3aR,6aS)-5-acetyloctahydropyrrolo[3,4-c]pyrrole-2-carbonyl)pyridin-2-yl)-N-(4-(3,3-dimethylureido)benzyl)-1-isopropyl-4,5,6,7-tetrahydro-1H-pyrazolo[4,3-c]pyridine-3-carboxamide]
0.225 µM	CC(C)n1nc(C(=O)NCc2ccc(NC(=O)N(C)C)cc2)c2c1CCN(c1ccc(C(=O)N3CC[C@@H](C#N)C3)cn1)C2 [Example 297, (R)-5-(5-(3-cyanopyrrolidine-1-carbonyl)pyridin-2-yl)-N-(4-(3,3-dimethylureido)benzyl)-1-isopropyl-4,5,6,7-tetrahydro-1H-pyrazolo[4,3-c]pyridine-3-carboxamide]
0.241 µM	CC(=O)N1[C@H](C)CN(C(=O)c2ccc(N3CCc4c(c(C(=O)NCc5ccc(NC(=O)N(C)C)cc5)nn4C(C)C)C3)nc2)C[C@@H]1C [Example 299, 5-(5-((3S,5R)-4-acetyl-3,5-dimethylpiperazine-1-carbonyl)pyridin-2-yl)-N-(4-(3,3-dimethylureido)benzyl)-1-isopropyl-4,5,6,7-tetrahydro-1H-pyrazolo[4,3-c]pyridine-3-carboxamide]
0.002 µM	[2H]C([2H])([2H])N(C(=O)Nc1ccc(CNC(=O)c2nn(C(C)C)c3c2CN(c2ccc(C(=O)N(C)C)cc2)C[C@@H]3C)cc1)C([2H])([2H])[2H] [Example 315, (S)-N-(4-(3,3-bis(methyl-d3)ureido)benzyl)-5-(4-(dimethylcarbamoyl)phenyl)-1-isopropyl-7-methyl-4,5,6,7-tetrahydro-1H-pyrazolo[4,3-c]pyridine-3-carboxamide]
0.71 µM	CC(C)n1nc(C(=O)NCc2ccc(NC(=O)N(C)C)cc2)c2c1CCN(c1ccc(C(=O)N3CC(=O)N[C@H](C)C3)cn1)C2 [Example 325, (R)-N-(4-(3,3-dimethylureido)benzyl)-1-isopropyl-5-(5-(3-methyl-5-oxopiperazine-1-carbonyl)pyridin-2-yl)-4,5,6,7-tetrahydro-1H-pyrazolo[4,3-c]pyridine-3-carboxamide]
0.266 µM	CC(C)n1nc(C(=O)NCc2ccc(NC(=O)N(C)C)cc2)c2c1CCN(c1ccc(C(=O)N3CC(=O)NCC3(C)C)cn1)C2 [Example 328, 5-(5-(2,2-dimethyl-5-oxopiperazine-1-carbonyl)pyridin-2-yl)-N-(4-(3,3-dimethylureido)benzyl)-1-isopropyl-4,5,6,7-tetrahydro-1H-pyrazolo[4,3-c]pyridine-3-carboxamide]
0.16 µM	CC(C)n1nc(C(=O)NCc2ccc(NC(=O)N(C)C)cc2)c2c1CCN(c1ccc(C(=O)N(C)CCO)cn1)C2 [Example 332, N-(4-(3,3-dimethylureido)benzyl)-5-(5-((2-hydroxyethyl)(methyl)carbamoyl)pyridin-2-yl)-1-isopropyl-4,5,6,7-tetrahydro-1H-pyrazolo[4,3-c]pyridine-3-carboxamide]
0.007 µM	CC(C)n1nc(C(=O)NCc2ccc(NC(=O)N(C)C)cc2)c2c1CCN(c1ccc(C(=O)N3Cc4cnn(C)c4C3)cn1)C2 [Example 363, N-(4-(3,3-dimethylureido)benzyl)-1-isopropyl-5-(5-(1-methyl-1,4,5,6-tetrahydropyrrolo[3,4-c]pyrazole-5-carbonyl)pyridin-2-yl)-4,5,6,7-tetrahydro-1H-pyrazolo[4,3-c]pyridine-3-carboxamide]
0.02 µM	CC(C)n1nc(C(=O)NCc2ccc(NC(=O)N(C)C)cc2)c2c1CCN(c1ccc(C(=O)N3CCc4nn(C)cc4C3)cn1)C2 [Example 364, N-(4-(3,3-dimethylureido)benzyl)-1-isopropyl-5-(5-(2-methyl-4,5,6,7-tetrahydro-2H-pyrazolo[4,3-c]pyridine-5-carbonyl)pyridin-2-yl)-4,5,6,7-tetrahydro-1H-pyrazolo[4,3-c]pyridine-3-carboxamide]

Source: patent publication US20250320213A1, “Nitrogen-Containing Heterocyclic Compounds” (Pfizer Inc., priority 2024, published 2025)
